Columns and labels:
[1] = target: human recombinant EP4 receptor (Homo sapiens, UniProt P35408); assay: [3H]-PGE2 specific binding on human recombinant EP4 receptor (HEK293 membranes)
Method: Cell membranes were prepared from HEK293 cell line (Human Embryonic Kidney 293) stably overexpressing human recombinant EP4 receptor. Cells grow adherent in DMEM with Glutamax | containing 10% FBS at 37° C. with 5% CO2. For membranes preparation, culture medium was aspirated from 150 cm^2 flasks in which cells were seeded. Cell monolayers were washed with 10 ml of hypotonic lysis buffer (TRIS 5 mM+EDTA 5 mM-pH 7.4), then cells were detached and lysed with the same buffer and by mechanical scraping. Lysates were centrifuged at 40000×g at 4° C. for 22 min. Pellets were stored at −80° C. until the use.
[3H]-Prostaglandin E2 ([3H]-PGE2) binding assays were performed in 10 mM MES-KOH buffer pH6, containing 10 mM MgCl2 and 1 mM CaCl2. Ten microgram of protein from membrane fractions are incubated in a total volume of 0.1 ml with 1 nM [3H]-PGE2. In order to determine the total binding or the non specific binding, 1% DMSO or 1 μM PGE2 were added to reaction mixtures, respectively. The specific binding represented >85% of total binding. In competition curves, the diluent was substituted by the test compounds (8 concentration spanning at least 2 order of magnitude; points in duplicates). In an independent series of experiments, competition curves of the same compounds were performed in the presence of Bovine Serum Albumin 0.5%. Incubation was carried out in a 96 multiwell plate for 90 min at room temperature, prior to separation of the bound and free radioligand by rapid filtration on glass fiber filters (Unifilter GFB96, PerkinElmer Inc) pre-soaked in 0.3% polyethyleneimine. Filters were washed with ice cold buffer pH 7.4 (50 mM HEPES, NaCl 500 mM, BSA 0.1%), dried for 30 minutes at 30° C. and then 0.1 ml of MICROSCINT-20 (PerkinElmer Inc) were added. The residual [3H]-PGE2 binding was determined by solid scintillation counter (TopCount, PerkinElmer Inc), after at least 1 hour of stabilization. Results of the competition curves were expressed as IC50 and the corresponding Ki were calculated according to the Chang-Prousoff equation. Finally the Ki value was transformed in pKi (the negative log of Ki).

[2] = test system: TNF-α gene expression in human THP-1 macrophages; assay: TNF-α gene expression in THP-1 cells differentiated to macrophages (LPS + PGE2), RT-PCR; assay type: cell-based; settings: LPS 10 ng/ml + PGE2 10 nM, 3 hours, concentration as low as 0.1 μM
Method: The human monocyte cell line THP-1, obtained from the ATCC, was grown according to the instructions provided. THP-1 cells were differentiated to macrophages with 100 nM phorbol 12-myristate 13-acetate (PMA) (Sigma Aldrich) for 4 days. Macrophages were then stimulated with lipopolysaccharide (LPS) (Sigma Aldrich) 10 ng/ml and PGE2 0.01 μM for 3 hours. Total RNA was purified using the ABI Prism 6100 Nucleic Acid PrepStation (Applied Biosystems, Foster City, CA, USA) and retrotranscribed using the High-Capacity cDNA Reverse Transcription Kit (Thermo Fisher Scientific). RT-PCR analysis was performed using the Applied Biosystems 7500 Fast Real-Time PCR System using specific TaqMan assays (number Hs00174128_m1; Thermo Fisher Scientific) and, as an endogenous control, the 18S Pre-Developed TaqMan® Assay (Thermo Fisher Scientific). The data analysis, with normalisation on 18S amplified values, was done following Thermo Fisher Scientific's specific instructions for gene expression relative quantification. All individual data are the result of at least three different analyses for each sample.
To evaluate the Compound 1 potential in counteracting the PGE2 induced inhibition of TNF-α gene expression in human macrophages, THP-1 cells were differentiated to macrophages and subsequently treated with LPS 10 ng/ml plus PGE2 10 nM+Compound 1 in the 0.01 μM to 10 μM concentrations range for 3 hours.

[3] = Physical and chemical stability testing of solid forms (mechanical, thermal stress)
[4] = test system: Th-17 cells differentiation of human CD4+ naïve T cells; assay: Ex vivo human Th-17 cells differentiation (flow cytometry); assay type: cell-based; settings: 0.03 μM PGE2, 48 hours
Method: Peripheral blood mononuclear cells (PBMC) were isolated from healthy volunteers using density gradient centrifugation and CD4+naïve T cells were enriched from PBMCs using human naïve CD4+ T cell isolation kit (Miltenyi Biotech). Isolated CD4+ T cells were maintained in RPMI medium and differentiated toward Th-17 cells by stimulation with IL-12 and IL-2, both 5 ng/ml in combination with 1.5 ng/ml of antibodies anti CD3 and anti CD28 and 0.03 μM PGE2+Compound 1 at concentration of 0.01-0.03-0.1-0.3 μM for 48 hours.
At the end of incubation time cells were stained with fluorescence-conjugated antibodies specific for CD4, CCR6, CD45, CD25 and IL-17 (all from BD Bioscience). Finally, the number of Th-17 cells was determined by flow cytometry and the events were measured by Fluorescence Activated Cell Sorter (FACS; BD Bioscience) and analyzed with dedicated software.

PK experiments in rat = settings: in vivo, po
[5] = Stability of Form A at different humidity values and temperatures; assay type: physicochemical
From the text: The stability of the Form A (named also as Compound 1) of the sodium salt of R)-4-(1-(6-(4-(trifluoromethyl)benzyl)-6-azaspiro[2.5]octane-5-carboxamido)cyclopropyl)benzoic acid at different humidity values and temperatures was investigated.

[6] = test system: Treg differentiation of human CD4+ naïve T cells; assay: Ex vivo human T regulatory cells differentiation (flow cytometry); assay type: cell-based; settings: 0.1 μM compound, 0.03 μM PGE2, 144 hours
Method: Peripheral blood mononuclear cells (PBMC) were isolated from healthy volunteers using density gradient centrifugation and CD4+naïve T cells were enriched from PBMCs using human naïve CD4+ T cell isolation kit (Miltenyi Biotech). Isolated CD4+ T cells were maintained in RPMI medium and differentiated toward a Treg phenotype using two interleukins, namely, rIL23 and rIL-1B, both at a concentration of 10 ng/ml and co-stimulated with PGE2 at 30 nM concentration over a 144 hours incubation period.
At the end of incubation cells were stained with fluorescence conjugated antibodies specific for CD3, CD4, FoxP3, CD25, IL35 and CRTH2 (all from BD Bioscience). Finally, the number of Treg cells was determined by flow cytometry and the events were measured by Fluorescence Activated Cell Sorter (FACS; BD Bioscience) and analyzed with dedicated software.

Chain of human recombinant EP4 receptor (P35408 whole entry): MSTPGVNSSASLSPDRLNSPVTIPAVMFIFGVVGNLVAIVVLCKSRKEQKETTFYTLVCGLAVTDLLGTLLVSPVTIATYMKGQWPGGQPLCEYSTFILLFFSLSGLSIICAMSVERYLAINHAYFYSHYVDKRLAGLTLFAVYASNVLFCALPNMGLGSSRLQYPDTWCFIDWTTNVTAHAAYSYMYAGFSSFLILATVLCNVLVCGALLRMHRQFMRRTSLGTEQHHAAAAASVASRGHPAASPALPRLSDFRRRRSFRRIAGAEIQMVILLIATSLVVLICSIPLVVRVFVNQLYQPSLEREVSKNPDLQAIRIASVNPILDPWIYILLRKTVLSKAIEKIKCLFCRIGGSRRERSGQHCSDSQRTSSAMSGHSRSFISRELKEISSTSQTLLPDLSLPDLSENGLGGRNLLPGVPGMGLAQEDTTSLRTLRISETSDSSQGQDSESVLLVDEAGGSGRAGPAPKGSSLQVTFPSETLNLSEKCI

O=C([O-])c1ccc(C2(NC(=O)[C@H]3CC4(CCN3Cc3ccc(C(F)(F)F)cc3)CC4)CC2)cc1.[Na+] [Compound 1, sodium (R)-4-(1-(6-(4-(trifluoromethyl)benzyl)-6-azaspiro[2.5]octane-5-carboxamido)cyclopropyl)benzoate]
Ki ([1]; BSA 0.5%): 25.1 nM
Ki ([1]; None (absence of BSA)): 12.6 nM
TNF-α gene expression vs cells treated with PGE2+LPS only [2]: two to three fold increase
thermodynamic stability of the form [3]: most thermodynamically stable anhydrous form
physical stability (conversion to amorphous form) ([3]; mechanical or thermal stress): more stable towards amorphization by thermal stress
concentration at which plateau of maximal effect on Th-17 cells is reached [4]: above 0.1 μM
number of naïve Th-17 cells ([4]; 0.01-0.3 μM): marked decrease
Tmax (PK experiments in rat): 1 h
Stability ([5]; Powder, 50% RH −30° C.): Stable >24 hours
Stability ([5]; Powder, 80° C.): Stable >5 days
Stability ([5]; Powder, RT): Stable >1 month
Stability ([5]; Sealed foil/Poly bag, 70% RH −40° C.): Stable >3 months
Treg cell differentiation [6]: significantly decreased
